This is an account of results in PubChem BioAssay (NCI).

Among the test systems are EKVX NSCLC; HCC-2998 colon; KM12 colon; M14 melanoma; MALME-3M melanoma; SK-OV-3 ovarian; SNB-19 CNS; SNB-75 CNS; U251 CNS; DU-145 prostate; OVCAR-5 ovarian.
What all share (test): inhibition of tumour cell growth, NCI panel, 48 h

The structures appear in SMILES notation. Where “and” joins values, the source holds several entries; their conditions need not be identical. Equal entries are not always repeated.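 The compound was tested at five concentrations on cells cultured in 96-well plates, with a 48-hour exposure period. GI50 = concentration required for 50% inhibition of growth. TGI denotes the concentration required for complete inhibition of growth.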

Take `CC(=O)Nc1ccc(Cl)c(Cl)c1`: the TGI in the assay on EKVX NSCLC, in the assay with HCC-2998 colon, in the assay on KM12 colon, in the assay with M14 melanoma, with MALME-3M melanoma and in the assay on SK-OV-3 ovarian was more than 100 µM throughout. The TGI in the assay with SNB-19 CNS, in the assay with SNB-75 CNS and with U251 CNS was more than 100 µM in each case.

Regarding `O=c1nc2c(c(-c3cccc(Cl)c3)[nH]1)COC/C2=C\c1cccc(Cl)c1`, the TGI with DU-145 prostate, with EKVX NSCLC, in the assay with HCC-2998 colon, with KM12 colon, with M14 melanoma and in the assay on OVCAR-5 ovarian was more than 100 µM in each case. For the same compound, the TGI with SK-OV-3 ovarian, with SNB-19 CNS, in the assay on SNB-75 CNS and with U251 CNS was more than 100 µM in each case.

`O=C1NC(=S)NC(=O)C1C(c1ccccc1[N+](=O)[O-])C1C(=O)NC(=S)NC1=O`: the TGI in the assay on DU-145 prostate, in the assay on KM12 colon, in the assay on M14 melanoma, in the assay on MALME-3M melanoma, in the assay with OVCAR-5 ovarian and with SNB-19 CNS was more than 100 µM each time. The compound also yielded a TGI in the assay on U251 CNS of more than 100 µM.

Turning to `N#CSCc1cccc(Nc2cc(=O)[nH]c(=O)[nH]2)c1`, the TGI in the assay with EKVX NSCLC, with HCC-2998 colon, in the assay with KM12 colon, in the assay on M14 melanoma, in the assay on MALME-3M melanoma and in the assay with OVCAR-5 ovarian was more than 100 µM each time. Further, the TGI in the assay with SK-OV-3 ovarian, with SNB-19 CNS, in the assay on SNB-75 CNS and in the assay on U251 CNS was more than 100 µM throughout.

For the compound `O=C1C(Cl)N(c2ccccc2)C1c1c[nH]c2ccccc12` (configuration not stated), the TGI in the assay on EKVX NSCLC, with KM12 colon, in the assay on M14 melanoma, in the assay on MALME-3M melanoma, in the assay on OVCAR-5 ovarian and in the assay on SK-OV-3 ovarian was more than 100 µM each time. The TGI with SNB-19 CNS, in the assay on SNB-75 CNS and in the assay with U251 CNS was more than 100 µM each time.

For `O=C(OCc1ccccc1)OOC(=O)OCc1ccccc1`, the TGI in the assay with EKVX NSCLC, in the assay on HCC-2998 colon, with KM12 colon, in the assay on M14 melanoma, with MALME-3M melanoma and in the assay with OVCAR-5 ovarian was more than 100 µM each time. Further, the TGI with SK-OV-3 ovarian, in the assay on SNB-19 CNS, with SNB-75 CNS and in the assay on U251 CNS was more than 100 µM throughout.

With `N#Cc1c(OCCF)c2ccccc2n2c1nc1ccccc12`, the TGI in the assay with DU-145 prostate, in the assay with EKVX NSCLC, in the assay with HCC-2998 colon, in the assay on KM12 colon, in the assay with M14 melanoma and with OVCAR-5 ovarian was more than 100 µM throughout. The TGI in the assay on SK-OV-3 ovarian, in the assay with SNB-19 CNS, in the assay on SNB-75 CNS and in the assay on U251 CNS was more than 100 µM each time.

Consider `COc1ccc(CNc2nc3ccc(C(F)(F)F)cc3nc2-c2ccccc2)cc1OC`, for which the TGI in the assay with EKVX NSCLC, with HCC-2998 colon, in the assay with MALME-3M melanoma, in the assay on OVCAR-5 ovarian, in the assay with SK-OV-3 ovarian and in the assay with SNB-19 CNS was more than 100 µM throughout. Also, the TGI in the assay on SNB-75 CNS and in the assay with U251 CNS was more than 100 µM each time.

For the compound `c1ccc(N=c2snc(-c3ccccc3)s2)cc1`, the TGI in the assay on HCC-2998 colon, in the assay with KM12 colon, with M14 melanoma, with MALME-3M melanoma, in the assay with SK-OV-3 ovarian and in the assay on SNB-19 CNS was more than 100 µM throughout. In addition, the TGI in the assay on SNB-75 CNS and in the assay with U251 CNS was more than 100 µM throughout.

Regarding `CC(C)CCNC(=O)c1ccc(CNC(=O)/C=C/c2ccc(OCc3ccccc3)cc2)cc1`, the TGI in the assay with DU-145 prostate, with HCC-2998 colon, in the assay on KM12 colon, in the assay on M14 melanoma, with OVCAR-5 ovarian and with SK-OV-3 ovarian was more than 100 µM each time. Further, the TGI in the assay with SNB-19 CNS, in the assay with SNB-75 CNS and in the assay on U251 CNS was more than 100 µM in each case.

`O=C1C(C=NCCc2c[nH]c3ccccc23)C(C(F)(F)F)=NN1c1nc2ccccc2s1` (configuration not stated): the TGI with DU-145 prostate was 79.5 µM; with EKVX NSCLC, 62.9 µM; with M14 melanoma, more than 100 µM; in the assay with MALME-3M melanoma it was more than 100 µM; in the assay on OVCAR-5 ovarian, 78.8 µM; with SK-OV-3 ovarian, 76.2 µM. Besides, the TGI with SNB-19 CNS, with SNB-75 CNS and with U251 CNS was more than 100 µM throughout.

For the compound `O=C(O)CNC(=O)c1ccc([As](=O)(O)O)cc1`, the TGI in the assay on DU-145 prostate, in the assay on EKVX NSCLC, with KM12 colon, with M14 melanoma, in the assay with MALME-3M melanoma and with OVCAR-5 ovarian was more than 100 µM in each case. The TGI in the assay with SK-OV-3 ovarian, with SNB-19 CNS, with SNB-75 CNS and in the assay on U251 CNS was more than 100 µM in each case.

On to `COc1cc([C@@H]2c3cc4c(cc3C[C@H]3COC(=O)[C@@H]32)OCO4)cc(OC)c1OC`, for which the TGI in the assay with DU-145 prostate was 0.00914 µM; with EKVX NSCLC, more than 50 µM; with HCC-2998 colon it was 1.01 µM; in the assay on KM12 colon, more than 50 µM; in the assay with MALME-3M melanoma, more than 50 µM; in the assay on OVCAR-5 ovarian, more than 50 µM. Moreover, the TGI was more than 50 µM in the assay with SK-OV-3 ovarian, more than 7.93 µM with SNB-19 CNS, more than 13.3 µM with SNB-75 CNS and 1.5 µM in the assay on U251 CNS. Besides, the GI50 with HCC-2998 colon is 0.00446 µM; in the assay with KM12 colon, 0.00389 µM and 0.005 µM; in the assay with MALME-3M melanoma, 0.00681 µM; in the assay with OVCAR-5 ovarian, 0.00692 µM; in the assay on SK-OV-3 ovarian, 0.00431 µM; with SNB-19 CNS it was 0.00666 µM. The GI50 in the assay on SNB-75 CNS is 0.0042 µM; in the assay with U251 CNS it was 0.00392 µM.
